{"source": "patent US12085575B2", "about": "“Compositions and methods for detecting proteinopathies” (BOARD OF SUPERVISORS OF LOUISIANA STATE UNIVERSITY AND …, priority 2011, dated 2024)", "format_in_all_cases": "cell-based, human", "key": {"Mfn2": {"system": "Mfn2", "test": "Mfn2 modification and degradation in A-T/LV shRNA cells treated with mitochondrial depolarizing agents", "conditions": "ISG15 overexpressing A-T cells, 24 hr", "experimental": "Immunoblotting Analysis of Mitochondrial Proteins—Mitochondria were isolated from A-T/LV control and ISG15 shRNA cells using the Miochondrial Isolation Kit (Thermo Scientific Company, 89874). The Dounce homogenization protocol described by the manufacturer was used to isolate mitochondria from cells. Mitochondrial pellets were resuspended in lysis buffer containing 50 mM Tris pH 7.5 and 4% (v/v) SDS. Samples were homogenized and boiled for 10 min. Lysates containing equal protein were then mixed with 6× Laemmli SDS sample buffer (3× final concentration). Samples were boiled again and mitochondrial proteins were analyzed by SDS-PAGE. Immunoblotting analyses using either anti-ISG15 (raised against human ISG15) (20), anti-ubiquitin (gift from Dr. Arthur Haas, at LSUHSC—New Orleans), or anti-mitofusin 2 (Abcam, ab88569) antibodies were carried out using the ECL Western procedure (Pierce, 34076) and the BioRad VersaDoc Imaging System (BioRad). Immunoblotting Analysis of HA Polyubiquitylated Proteins in Cells: Cells were transfected with HA-ubiquitin using the PolyFect transfection reagent (Qiagen, 301105). Twenty four hours after transfection, mitochondria were isolated as described above. Mitochondrial lysis, SDS-PAGE, and immunoblotting analysis to detect HA-ubiquitin conjugated proteins using anti-HA antibodies were carried out as described above. Immunoblotting Analysis of Mfn2 in Cells: Cells were lysed in lysis buffer containing 50 mM Tris-HCl, pH 7.5, 2% SDS, and protease inhibitor cocktail. Lysates were sonicated, boiled, and cleared by centrifugation. Lysates containing equal protein were then mixed with 6× Laemmli SDS sample buffer (3× final concentration). Samples were boiled again and proteins were separated by 15% SDS-PAGE. Immunoblotting analysis was carried out using anti-Mfn2 antibodies (Abcam) as described above. Intensity of the Mfn2 bands was quantitated using BioRad Quantity One software. Statistical analysis—Statistical analysis was carried out using GraphPad software.\nMany outer mitochondrial membrane (OMM) proteins are ubiquitylated and degraded via the 26S proteasome prior to mitophagy in cells treated with the mitochondrial depolarizing agents (28,29). To test whether ISG15 inhibits polyubiquitylation of OMM proteins, we assessed the fate of Mfn2, an OMM protein and proteasome substrate, in A-T/LV-control and A-T/LV-ISG15-silenced cells treated with two different mitochondrial depolarizing agents, valinomycin and carbonylcyanide m-chlorophenylhydrazone (CCCP). Consistent with the literature reports (29,35,36), we observed a ladder of high molecular weight anti-Mfn2 cross-reactive bands above the 86 kDa Mfn2 protein band that is reminiscent of polyubiquitylation, in both ISG15-silenced and ISG15 overexpressing A-T cells (FIGS. 34 A and B, left panels). The endogenous level of these high molecular weight Mfn2 cross-reactive bands was remarkably higher in ISG15-silenced as compared to the ISG15-overexpressing A-T cells in the absence of any drugs (FIGS. 34A and B, first panels, compare lanes 1 and 4). […] In contrast, the level of these Mfn2 cross-reactive high molecular weight bands decreased under the same drug treatment conditions in ISG15-silenced A-T cells (FIGS. 34A and B, first panels, lanes 4-6, and the accompanying bar graph in the second panel for quantitation). […] The bar graphs in FIGS. 34A and B, third panels, show mean values of the ratio between free Mfn2 (86 kDa band) and actin proteins (±SEM) in CCCP-treated A-T/LV-control and ISG15 shRNA cells measured from eight independent experiments, and valinomycin-treated A-T/LV-control and ISG15 shRNA cells measured from three independent experiments respectively."}, "[1]": {"system": "polyubiquitylated proteins", "test": "CHX chase of polyubiquitylated proteins in FT169A cells", "conditions": "FT169A (ATM+) cells", "experimental": "To test whether the defective ubiquitin-mediated degradation of cellular proteins contributes to neurodegeneration in A-T, the rate of degradation of overall cellular polyubiquitylated proteins was monitored in FT169A (A-T) (ATM null) and FT169A (ATM+) (ATM reconstituted FT169A) isogenic cells as described (71) using the protein synthesis inhibitor cycloheximide (CHX) (Sigma-Aldrich). In FIG. 1A, FT169A (A-T) (lanes 1-4) and FT169A (ATM+) (lanes 5-8) cells were treated with the protein synthesis inhibitor CHX (10 μg/ml) for 0, 1, 3, and 6 hours. Cell lysates were analyzed using discontinuous (15%) SDS-PAGE followed by immunoblotting with anti-ubiquitin antibody. The symbols * and ** mark the position of high-molecular-weight (HMW) polyubiquitylated proteins. Quantitation of the high-molecular-weight (HMW) polyubiquitylated proteins (shown as **) is shown in the bar graph.\nThe ubiquitin sequence contains seven lysine residues (at positions 6, 11, 27, 29, 33, 48, and 63) and polyubiquitin chain assembly can occur at any of these lysine residues (74). Lys48-linked polyubiquitylated proteins are targeted for destruction via the 26S proteasome (74). […] The amount of polyubiquitylated proteins and the rate of turnover of polyubiquitylated proteins (see the HMW protein species marked by *) were determined under the same conditions as in FIG. 1B using the anti-HA antibody in immunoblotting. […]"}, "[2]": {"system": "autophagosomes and autophagolysosomes", "test": "Cyt-ID and LysoTracker Red staining of autophagosomes, lysosomes and autophagolysosomes", "experimental": "Autophagasome, lysosome and autophagolysosomes staining. Cells (100,000/point) were cultured on fibronectin-coated glass coverslips. Cells were treated with autophagy inhibitor Bafl (1 nM) (Sigma-Aldrich) for 18 hr. Cells were then exposed to UV radiation and allowed to recover in the presence of inhibitors for 3 h. Cells were then washed (2×1 min) with PBS and co-stained with Cyt-ID® (Cyt-ID® Autophagy Detection Kit from Enzo Lifesciences; Farmingdale, NY) and Lyso Tracker® Red DND-99 (Invitrogen) for 30 min at 37° C. in a CO2 incubator following manufacturer's protocol. Stained cells were then washed (2×1 min) with PBS and fixed with 4% paraformaldehyde for 20 min at room temperature. After washing with PBS (3×10 min), cells were mounted on slides in anti-fade mounting medium with DAPI (Invitrogen). Images were taken using a 63× oil immersion objective with a Leica DMRA2 upright microscope run through SlideBook software (Intelligent Imaging Innovations).\nAutophagic flux was also monitored using Cyto-ID® and LysoTrack Red dyes. A-T and ATM+ cells were treated with Bafl (1 nM for 18 h) and then exposed to UV (25 mJ/m2) as indicated. Three hours after recovery in the presence of inhibitors, cells were co-stained with Cyt-ID® and LysoTracker Red® dyes. Fluorescence images of Cyt-ID® and LysoTracker Red® stained cells were made (Color images not shown). Green (autophagosomes; from Cyt-TD®-stained panels), red (lysosomes; from LysoTracker Red-stained panels), and yellow (autophagolysosomes; from merged panels) dots in A-T and ATM+ cells were counted manually using the ImageJ plug-in Cell Counter. Mean number of dots/cell is shown in FIGS. 11A and 11B, respectively. In FIGS. 11A and 11B, the number of autophagosomes (green dots) is represented by stippled bars; the number of lysosomes (red dots) is presented by lined bar; and the number of autophagolysosomes (yellow dots) is represented by clear (white) bars.\nBafilomycin inhibits autophagy at a late stage (47). Whether 3-methyl adenine (3-MA), an autophagy inhibitor known to inhibit autophagy at early stage by inhibiting formation of autophagosomes (56), could block UV-induced autophagic flux was tested in A-T/LV-control shRNA cells. Using Cyto-ID® and LysoTrack Red dyes as described herein in FIGS. 9A, 9B, 11A and 11B, the same criteria were used to judge autophagic activity in immunofluorescence analysis as described for FIGS. 11A and 11B.\nThe effect of 3-MA on UV-induced autophagic flux was tested in A-T/LV-ISG15 shRNA cells. A-T/LV-ISG15 shRNA cells were either left untreated or treated with 3-MA (10 nM for 18 h), and cells were then exposed to UV (25 mJ/m2). Three hours after recovery in the presence of the inhibitor, cells were co-stained with Cyt-ID® and LysoTracker Red® dyes. Fluorescence images of Cyt-ID® and LysoTracker Red® stained cells were made."}, "[3]": {"system": "HA-polyubiquitylated proteins", "test": "UV-induced degradation of HA-polyubiquitylated proteins (anti-HA Western blot)", "conditions": "MG132 1 nm or 3-MA 10 nm for 18 h, UV 25 mJ/m2", "experimental": "Immunoblotting Analysis of HA-ubiquitin conjugated proteins in cells exposed to UV radiation. Cells ([…]) were transfected with a hemagglutinin (HA)-ubiquitin plasmid using the PolyFect transfection reagent (Qiagen; Valencia, CA) as described (24). Twenty-four h after transfection, cells were treated with either proteasome inhibitor MG132 (1 μM) (Boston Biochemicals; Cambridge, MA) or autophagy inhibitor Bafilomycin A1 (Bafl) (1 nM) (Sigma-Aldrich) or 3-Methyladenine (3-MA) (100 nM) for 18 h. Cells were exposed to UV radiation (25 mJoules, using BioRad GS Gene Linker™ UV Chamber) and/or left untreated. Cells were then allowed to recover in the presence of inhibitors for 3 hr. Cell lysis, SDS-PAGE, and immunoblotting analysis to detect HA-ubiquitin conjugated proteins using anti-HA antibodies was carried out as described herein.\nDecrease in the steady state levels of polyubiquitylated proteins could be due to their increased deubiquitylation or increased degradation via the 26S proteasome. Also, the ubiquitin antibody used in the experiment herein is known to cross-react with free ISG15/UCRP (44), and ISG15 protein is elevated in A-T cells (20). An HA-ubiquitin construct was transfected and then the steady state levels of the HA-polyubiquitylated proteins was assessed (to rule out the possibility of protein polyubiquitylation versus protein polyISGlyation), in the absence or presence of the proteasome inhibitor MG132 (to rule out the possibility of protein deubiquitylation versus protein degradation), in UV treated A-T and ATM+ cells. In FIG. 8B, A-T and ATM+ cells were transfected with a HA-ubiquitin construct. Cells were then treated with MG132 (1 μM) or Bafl (1 nM) for 18 hours and exposed to UV radiation (25 mJ/m2). After recovery in the presence of inhibitors for an additional three hours, cells were lysed. Cell extracts were analyzed by Western blotting for HA-polyubiquitylated proteins and actin using anti-HA and anti-actin antibodies respectively. Intensity of the total HA-polyubiquitylated proteins was quantitated using BioRad Quantity One software and results shown in FIG. 8C.\nTo complement the results shown in FIG. 8B, another construct was used that expresses HA-ubiquitin and that can preferentially make polyubiquitin chains linked through Lys48 on the substrates (20). In FIG. 8D, A-T and ATM+ cells were transfected with HA-Lys48 only ubiquitin construct. The inhibitor and UV treatments, cell lysis, SDS-PAGE, and immunoblotting analysis to detect HA-ubiquitin conjugated proteins using anti-HA antibodies was carried out as described herein. The experiment was repeated two times with the reproducible results. Similar results were obtained using this distinct HA-ubiquitin construct (FIG. 8D) as obtained herein (FIG. 8B); UV induced MG132- and Bafilomycin-resistant degradation of HA-Lys48-linked polyubiquitylated proteins in A-T cells, but not in ATM+ cells.\nFor FIG. 14A, HA-ubiquitin-transfected A-T/LV-control shRNA cells were exposed to UV (25 mJ/m2). After three hours of recovery, assessment of HA-polyubiquitylated proteins was carried out as described herein for FIG. 8B. In FIG. 14B, HA-ubiquitin-transfected A-T/LV-control shRNA cells were treated with Bafl (1 nm for 18 h). Cells were then exposed to UV (25 mJ/m2). After three hours of recovery in the presence of the inhibitor, assessment of HA-polyubiquitylated proteins was carried out as described for FIG. 14A. For FIG. 14C, HA-ubiquitin-transfected A-T/LV-control shRNA cells were treated with MG132 (1 nm for 18 h). Cells were then exposed to UV (25 mJ/m2). After three hours of recovery in the presence of the inhibitor, assessment of HA-polyubiquitylated proteins was carried out as described for FIG. 14A. For FIG. 14D, HA-ubiquitin-transfected A-T/LV-control shRNA cells were treated with 3-MA (10 nm for 18 h). Cells were then exposed to UV (25 mJ/m2). […]"}}, "data": [{"smiles": "CC(C)[C@@H]1NC(=O)[C@H](C)OC(=O)[C@@H](C(C)C)NC(=O)[C@@H](C(C)C)OC(=O)[C@H](C(C)C)NC(=O)[C@H](C)OC(=O)[C@@H](C(C)C)NC(=O)[C@@H](C(C)C)OC(=O)[C@H](C(C)C)NC(=O)[C@H](C)OC(=O)[C@@H](C(C)C)NC(=O)[C@@H](C(C)C)OC1=O", "note": "[valinomycin]", "values": [{"measurement": "free Mfn2 protein level", "setting": "Mfn2", "value": "slightly increased"}]}, {"smiles": "C[C@@H]1C[C@@H]([C@H](O)CC2CC(=O)NC(=O)C2)C(=O)[C@@H](C)C1", "note": "[CHX, cycloheximide]", "values": [{"measurement": "level of polyubiquitylated proteins reduced", "setting": "[1]; CHX 10 μg/ml, within 6 hours", "value": "more than 30%"}, {"measurement": "cellular pool of Lys48-linked polyubiquitylated proteins reduced", "setting": "[1]; CHX, within 3 hours", "value": "more than 70%"}]}, {"smiles": "Cn1cnc(N)c2ncnc1-2", "note": "[3-MA, 3-Methyladenine]", "values": [{"measurement": "yellow mean dots/cell (autophagolysosomes)", "setting": "[2]; 3-MA-treated A-T/LV-control shRNA cells, untreated 3.8", "value": 0.5, "unit": "dots/cell"}, {"measurement": "green mean dots/cell (autophagosomes)", "setting": "[2]; 3-MA-treated A-T/LV-control shRNA cells, untreated 4.6", "value": 0.16, "unit": "dots/cell"}, {"measurement": "autophagic activity", "setting": "[2]; A-T/LV-ISG15 shRNA cells, 3-MA 10 nM 18 h, UV 25 mJ/m2", "value": "No apparent change"}, {"measurement": "green dots and yellow dots", "setting": "[2]; A-T/LV-control shRNA cells co-treated with 3-MA and UV", "value": "remained unaltered"}, {"measurement": "UV-induced degradation of HA-polyubiquitylated proteins", "setting": "[3]; A-T/LV-ISG15 shRNA (ISG15-silenced) cells", "value": "induced degradation"}, {"measurement": "UV-induced degradation of HA-polyubiquitylated proteins", "setting": "[3]; A-T/LV-control shRNA cells", "value": "markedly blocked"}]}]}
